Assays:
SMYD3-GST tag protein = molecular target: T1, SMYD3-GST tag protein (Homo sapiens, UniProt Q9H7B4); experiment: Biolayer interferometry (BLI) binding assay; conditions: steady-state analysis, read-out: equilibrium dissociation constant (K D)
T1 construct: purchased BPS Bioscience
T1 sequence (Q9H7B4 1-428): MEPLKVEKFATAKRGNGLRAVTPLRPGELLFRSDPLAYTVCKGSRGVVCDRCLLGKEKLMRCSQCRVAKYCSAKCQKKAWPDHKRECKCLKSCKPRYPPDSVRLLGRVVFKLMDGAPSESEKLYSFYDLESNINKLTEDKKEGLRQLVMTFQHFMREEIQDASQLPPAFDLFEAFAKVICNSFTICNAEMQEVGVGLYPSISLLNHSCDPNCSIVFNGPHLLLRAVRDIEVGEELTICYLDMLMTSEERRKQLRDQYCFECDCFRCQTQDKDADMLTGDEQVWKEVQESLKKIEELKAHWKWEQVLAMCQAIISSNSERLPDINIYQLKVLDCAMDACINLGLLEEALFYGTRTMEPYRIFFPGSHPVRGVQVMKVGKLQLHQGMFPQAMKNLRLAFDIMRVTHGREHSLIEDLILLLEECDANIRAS
Procedure: Next, to test the binding affinity of novel small molecules to SMYD3, BLI analyses were performed to determine the binding affinity of the two series of novel small molecules targeting SMYD3. SMYD3‐glutathione S‐transferase (GST)‐tagged protein was immobilized onto GST biosensors and used to determine the binding affinity of all respective small molecules and labeled probes. The binding and dissociation curves were generated in real time by applying the SMYD3‐GST label proteins onto the biosensor surfaces, followed by monitoring small molecules interaction across several concentrations. […] SMI1 has been renamed ZYZ384 and further tested for anticancer activities using both in vitro and in vivo models.
The SMYD3‐GST tag protein (BPS Bioscience) was immobilized onto a GST biosensor (Fortebio). ZYZ384 was tested across the concentrations range of 6.25–200 µM. After baseline setup using Phosphate buffer saline (PBS), the biosensor tips were immersed in wells containing ZYZ384 continuous diluent for 180 s to combine, followed by a 180‐s dissociation step. They calculated K D value with a 1:1 model in data analysis software 9.0 (Fortebio).

SMYD3 [1] = molecular target: T2, SMYD3 (Homo sapiens, UniProt Q9H7B4); experiment: SMYD3 homogeneous assay kit (AlphaELISA); assay type: biochemical; conditions: different concentrations, 3 h incubation
T2 construct: purchased BPS Bioscience
T2 sequence (Q9H7B4 1-428): T1 sequence (Q9H7B4 1-428)
Procedure: The homogeneous assay kit was used to evaluate ZYZ384 inhibition activity on SMYD3. As we know, SMYD3 can catalyze the di‐ and tri‐methylation status of lysine4 of histone H3. This protein is also reported to drive the methylation of a lysine residue present in the protein […] (MAP3K2). Therefore, a series of different concentrations of ZYZ384 were incubated with SMYD3, and the activity was determined using the kit.
The commercial SMYD3 homogenous assay kit is designed to detect SMYD3 activity for screening and analytical applications. The SMYD3 homogenous assay kit is available in a convenient AlphaELISA format with GST‐labeled SMYD3 substrate, primary antibody, methylation detection buffer, and purification of SMYD3 for 384 enzyme reactions. The key to the SMYD3 homogenous assay is a particular antibody that recognizes methylated substrates. Using the kit, methyltransferase can be detected in three simple steps on a microtitration plate. First, samples containing the SMYD3 enzyme and ZYZ384 in different dosages were incubated in substrates for 3 h. Next, the receptor bead and primary antibody are added, the donor bead is added, and the Alpha counts are recorded.

A549 cells = experiment: MTT cell viability; assay type: cell-based; conditions: Homo sapiens, 24 h
Procedure: (§1) The cytotoxicity of ZYZ384 was determined across several different cancer cell lines. 3‐(4,5‐Dimethylthiazol‐2‐yl)‐2,5‐diphenyltetrazolium bromide (MTT) assay was used to assess cell viability. […] The cancer cell lines tested include human liver carcinoma cell HepG2, adenocarcinoma human alveolar basal epithelial cell A549, human colon carcinoma cell HTC116, human breast adenocarcinoma cell MDA‐MB‐231, and human pancreatic adenocarcinoma cell Miapaca2. […] In addition, ZYZ384 had low toxicity when tested in normal liver cells (LO2; Figure 3H).
(§2) Human HepG2, A549, HCT116, MDA‐MB‐231, and Miapaca2 cells were purchased from American Type Culture Collection (ATCC) and cultured in DMEM medium supplemented with 1% penicillin/streptomycin and 10% FBS at 37°C under 5% CO2 atmosphere and 95% air. Trypsin EDTA was used for cell passage.
(§3) Cell viability was assessed in several cancer cell lines and determined using the MTT assay in a 96‐well plate format. In brief, cells from […] medium (1 × 10^4/well) were inoculated in 96‐well plates and treated with ZYZ384. After 24 h of treatment, cell viability was determined by adding 1 mg/mL MTT‐containing medium for 4 h, followed by […] Dimethyl sulfoxide (DMSO) to dissolve formazan. The absorbance at 570 nm was recorded using a microplate ultraviolet/visible (UV/VIS) spectrophotometer (Tecan).

HCT116 cells = experiment: MTT cell viability; assay type: cell-based; conditions: Homo sapiens, HCT-116, 24 h
Procedure: as §1, §2, §3

HepG2 cells = experiment: MTT cell viability; assay type: cell-based; conditions: Homo sapiens, 24 h
Procedure: as §1, §2, §3

MDA-MB-231 cells = experiment: MTT cell viability; assay type: cell-based; conditions: Homo sapiens; MDA-MB-231, MTT, 24 h
Procedure: as §1, §2, §3

Miapaca2 cells = experiment: MTT cell viability; assay type: cell-based; conditions: Homo sapiens, MIA PaCa-2, 24 h
Procedure: as §1, §2, §3

Huh7 cells = experiment: MTT cell viability; assay type: cell-based; conditions: Homo sapiens, Huh-7, 24 h
LO2 cells = experiment: MTT cell viability, normal liver cells; assay type: cell-based, human
Procedure: as §1, §3

SMYD3 [2] = experiment: SMYD3 overexpression by transfection in LO2 cells and ZYZ384 treatment; assay type: cell-based, human; conditions: LO2 transfected with SMYD3 OE plasmid, 24 h treatment
Procedure: as §1
SMYD3 overexpression (SMYD3 OE) plasmid (Sino Biological) was mixed with lipofectamine 2000 for plasmid transfection. After transfection for 6 h, cells were exposed to the indicated ZYZ384 treatments for another 24 h.

C57BL/6 mice = experiment: Short-term toxicity study of C57BL/6 mice; assay type: in vivo; conditions: oral
Procedure: The toxicity of ZYZ384 (Figure 4A) was determined using C57BL/6 mice in pilot studies to assess the safety and the maximum‐tolerable dose (MTD) determined (as shown in Figure 4B). No toxicity was reported in C57BL/6 mice orally administrated with 2 g/kg of ZYZ384 one time, and a survival rate of 100% was reached after 2 weeks of treatment. No abnormalities in food and water consumption are reported during this time, nor any unusual spontaneous activities; a reported […] for ZYZ384 >2 g/kg is noted for the current work.
C57BL/6 mice were randomly divided into two groups (n = 10) to determine the short‐term toxicity of ZYZ384. Mice were given the maximum dose of 2 g/kg orally administered ZYZ384 once, while the control group was treated with the same volume of sterilized water. The health conditions of all mice were monitored for 2 weeks.

HepG2 tumors = experiment: HepG2 tumor-bearing nude mouse model (CDX); assay type: in vivo, nude mice
Procedure: The in vivo antitumor effect of ZYZ384 was assessed using a HepG2 tumor‐bearing nude mouse model (cell‐derived xenograft, CDX; Figure 4D).
The tumor‐bearing nude mice model was established by direct injection of hepG2 cells into the left armpit of nude mice. Animals were subsequently divided into five groups (n = 7). All compounds were applied via intragastric administration, and sorafenib was used as the positive control. Other groups, except the control group, were treated with different concentrations of ZYZ384. Body weight and tumor volume were monitored and recorded throughout the treatment period.

SMYD3 [3] = experiment: SMYD3 expression in tumor tissue (Western blot); assay type: in vivo, nude mice; conditions: ZYZ384 treatment groups versus control group
Procedure: (§4) In order to explore the antitumor mechanism of ZYZ384, the inhibitory effect of ZYZ384 on SMYD3 was determined in tumor tissues. […] In parallel, the expression of H3K4me3 was also noted to decrease in a similar pattern to that of SMYD3 (Figure 5B). The tumor tissues from control and high‐dosage treatment group animals were isolated. Since SMYD3 can tri‐methylated H3K4, ChIP‐seq analysis was used. This method allowed for annotating H3K4me3 occupancy on genes (Figure 5C). Global H3K4me3 occupancy decreased near annotation genes' transcription start site (TSS; Figure 5D). H3K4me3 is often enriched at activated promoters near TSSs. When combined with Kyoto Encyclopedia of Genes and Genomes (KEGG) pathway enrichment analysis (Figure 5E) and Gene Ontology (GO) functional enrichment analysis (Figure 5F), attention focus on the AKT pathway, cell proliferation, and migration functions. Visualized reads and signal strength of H3K4me3 for the Rac1 gene at the promoter region decreased following treatment with ZYZ384 (Figure 5G). […]
(§5) Isolated protein (30 µg) was obtained from tissues, separated on a sodium dodecyl sulfate‐polyacrylamide gel electrophoresis (SDS‐PAGE) gel, and transferred to a polyvinylidene fluoride membrane. […] The immunoreactive protein is visualized by enhanced chemiluminescence, and the signal intensity was detected and quantified using ImageJ.

H3K4me3 = H3K4me3 expression in tumor tissue (Western blot); assay type: in vivo, nude mice; conditions: ZYZ384 treatment groups versus control group
Procedure: as §4, §5

Water solubility = assay type: physicochemical
Excerpt: We were granted a Chinese patent (CN114246851A) to protect the structure and activity of ZYZ384, the effectiveness of ZYZ384 at high concentrations presents a challenge for future clinical use. […] Currently, we are trying to transform it into hydrochloride or culture cocrystallization to improve its solubility, bioavailability, and druggability. Drug resistance and combination therapy of ZYZ384 on other models will be gradually carried out in the follow‐up work. Although we developed a small molecule targeting SMYD3, we still need to figure out whether it is a selective inhibitor, and related research is to be continued.

Q: Which Kd (SMYD3-GST tag protein) does the source give for `COc1ccc(/N=C2/c3ccccc3/C(=N/c3ccc(OC)cc3)C2(C)C)cc1` [ZYZ384, (1Z,3Z)-N1,N3-bis(4-methoxyphenyl)-2,2-dimethyl-1H-indene-1,3(2H)-diimine] here?
A: Its Kd is 78 µM.

Q: And the “SMYD3 activity (alpha counts)” value (SMYD3 [1])?
A: The value was “inhibits SMYD3 in a concentration‐dependent manner”.

Q: And the IC50 (A549 cells)?
A: Its IC50 is 20.7 µM.

Q: What about the IC50 (HCT116 cells) of the same molecule?
A: Its IC50 is 15.2 µM.

Q: What about the IC50 (HepG2 cells) of the same molecule?
A: The IC50 was 5.23 µM.

Q: What about the IC50 (MDA-MB-231 cells) of the same molecule?
A: Its IC50 is 7.28 µM.

Q: What about the IC50 (Miapaca2 cells) of the same molecule?
A: The IC50 was 13.8 µM.

Q: What about the IC50 (Huh7 cells) of the same molecule?
A: The IC50 was 5.45 µM.

Q: And the IC50 (LO2 cells; Homo sapiens, L02, LO2 normal liver cells, MTT, 24 h)?
A: Its IC50 is 26.7 µM.

Q: And the “toxicity in normal liver cells” value (LO2 cells; LO2)?
A: Its value is “low toxicity”.

Q: And the SMYD3 overexpression (SMYD3 [2])?
A: The SMYD3 overexpression was “suppressed”.

Q: And the LD5 (C57BL/6 mice)?
A: The LD5 was greater than 2000 mg/kg.

Q: What about the toxicity (C57BL/6 mice; 2 g/kg one time, 2 weeks observation) of the same molecule?
A: The toxicity was “No toxicity”.

Q: And the survival rate (C57BL/6 mice; 2 g/kg, after 2 weeks)?
A: Its survival rate is 100%.

Q: What about the “body weight changes during treatment” value (HepG2 tumors; HepG2 tumor-bearing nude mice) of the same molecule?
A: The value was “no noticeable body weight changes”.

Q: What about the “growth suppression in HepG2 tumors” value (HepG2 tumors; nude mice, 100 mg/kg intragastric, versus sorafenib 100 mg/kg) of the same molecule?
A: Its value is “better than that of sorafenib”.

Q: And the “SMYD3 expression in tumor tissues” value (SMYD3 [3])?
A: The value was “significantly diminished”.

Q: What about the “expression of H3K4me3 in tumor tissues” value (H3K4me3) of the same molecule?
A: The value was “decrease”.

Q: And the water solubility (Water solubility)?
A: The water solubility was “poor water solubility”.

From PMC11401973, “A novel small molecule ZYZ384 targeting SMYD3 for hepatocellular carcinoma via reducing H3K4 trimethylation of the Rac1 promoter” (MedComm, 2024)
